SMILES strings stand for the structures.

The target in this assay is T1, IDO1 (Mus musculus, UniProt P28776).
T1 construct: LPS-injected mice have been used as models to study IDO1 expression and activity; from tissue; host or cells: whole animal: LPS-injected C57BL/6 mice, with IDO1 induced in a variety of tissues
T1 sequence (P28776 whole entry): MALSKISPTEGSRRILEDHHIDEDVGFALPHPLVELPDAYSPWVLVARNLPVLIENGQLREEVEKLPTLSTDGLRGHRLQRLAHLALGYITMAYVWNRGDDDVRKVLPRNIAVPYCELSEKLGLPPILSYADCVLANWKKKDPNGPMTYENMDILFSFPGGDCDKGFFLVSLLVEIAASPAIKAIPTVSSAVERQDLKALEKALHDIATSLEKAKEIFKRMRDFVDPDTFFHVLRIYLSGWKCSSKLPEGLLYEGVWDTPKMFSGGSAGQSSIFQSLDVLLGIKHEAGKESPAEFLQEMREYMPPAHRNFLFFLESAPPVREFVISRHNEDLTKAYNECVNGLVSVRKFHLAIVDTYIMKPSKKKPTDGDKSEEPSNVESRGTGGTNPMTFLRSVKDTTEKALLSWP
In words: Reduction of LPS induced plasma kynurenine levels in C57BL/6 mice. Type of assay: in vivo. Particulars: LPS-injected (6 mg/kg i.p.) C57BL/6 mice; test compound given orally 20 h after LPS; plasma KYN by LC/MS/MS at 2 hr post dosing. The source says: Inflammatory mediators such as Lipopolysaccharides (LPS) and Interferon-gamma (IFNg) are well-established inducers of IDO1 expression. Intraperitoneal (i.p.) administration of bacterial lipopolysaccharide (LPS) induces peak IDO1 activity in a variety of tissues within one day after LPS administration resulting in the production and release of kynurenine into the bloodstream (Takikawa, O., et al. (1986) J. Biol. Chem. 261:3648-53; Yoshida, H., et al. (1998) Cell 94:739-750). LPS-injected mice have been used as models to study IDO1 expression and activity. Three—eight fed C57 BL/6 mice (age 7-8 weeks, weight: about 20-22 g) were injected intrapritoneally with bacterial lipopolysaccharide (LPS; 26:B6 Sigma) at a concentration of 6 mg/kg. Animals were then housed in normal condition for 20 hours at which time the test compounds were administered orally in formulation containing 30% polyethylene glycol 400 (PEG 400) and 20% propylene glycol (PG) in normal saline (Dosing volume 10 mL/kg). Blood was drawn through retro-orbital bleeds into a tube containing 100 mM EDTA for plasma collection at the following times: just prior to LPS treatment, just prior to test compound dosing (0 hr) and then at 2 hr, 4 hr, 6 hr, 8 hr, 24 hr and 48 hr post-test compound dosing. Plasma KYN and drug levels were determined by LC/MS/MS using an API4000 mass spectrometer (Applied Biosystems) coupled to a Shimadzu Prominence LC system fitted with a C18 column.
The compounds of the invention decrease kynurenine levels. The compounds of the invention trigger a decrease of kynurenine levels at 2 hrs of at least 5%.
Turning to `N#C/C(=N\c1ccc(F)c(Cl)c1)c1ccncc1O` [Compound 01, N-(3-Chloro-4-fluorophenyl)-3-hydroxyisonicotinimidoyl nitrile], the “percentage of decrease of kynurenine level at two hours” value (from here on “percentage of decrease … at two hours”) is reported as 73%.
Consider `N#C/C(=N\c1ccc(F)c(Cl)c1)c1ccnc(C#N)c1O` [Compound 02, N-(3-Chloro-4-fluorophenyl)-2-cyano-3-hydroxyIsonicotinimidoyl nitrile], for which the “percentage of decrease … at two hours” value was found to be 45%.
On to `N#C/C(=N\c1ccc(F)c(C(F)(F)F)c1)c1ccnc(C#N)c1O` [Compound 03, 2-Cyano-N-(4-fluoro-3-(trifluoromethyl)phenyl)-3-hydroxyisonicotinimidoyl nitrile], for which the “percentage of decrease … at two hours” value was 25%.
On to `N#C/C(=N\c1ccc(F)c(Cl)c1)c1ccnc(-c2ccncc2)c1O` [Compound 04, N-(3-Chloro-4-fluorophenyl)-3-hydroxy-[2,4′-bipyridine]-4-carbimidoyl nitrile], for which the “percentage of decrease … at two hours” value is on record as 77%.
Next, `N#C/C(=N\c1ccc(F)c(C(F)(F)F)c1)c1ccncc1O` [Compound 05, N-(4-Fluoro-3-(trifluoromethyl)phenyl)-3-hydroxyisonicotinimidoyl nitrile]: 64%; `N#C/C(=N\c1ccc(F)c(Cl)c1)c1cc(F)ncc1O` [Compound 06, N-(3-Chloro-4-fluorophenyl)-2-fluoro-5-hydroxyIsonicotinimidoyl nitrile]: 73%.
Next, `CNC(=O)c1cc(-c2nccc(/C(C#N)=N/c3ccc(F)c(Cl)c3)c2O)ccn1` [Compound 07, N-(3-Chloro-4-fluorophenyl)-3-hydroxy-2′-(methylcarbamoyl)-[2,4′-bipyridine]-4-carbimidoyl nitrile]: 43%; `N#C/C(=N\c1ccc(F)c(F)c1)c1ccnc(-c2ccncc2)c1O` [Compound 08, N-(3,4-Difluorophenyl)-3-hydroxy-[2,4′-bipyridine]-4-carbimidoyl nitrile]: 83%; `Cc1cc(-c2nccc(/C(C#N)=N/c3ccc(F)c(Cl)c3)c2O)ccn1` [Compound 09, N-(3-Chloro-4-fluorophenyl)-3-hydroxy-2′-methyl-[2,4′-bipyridine]-4-carbimidoyl nitrile]: 71%.
Next, `Cc1cc(-c2nccc(/C(C#N)=N/c3ccc(F)c(F)c3)c2O)ccn1` [Compound 10, N-(3,4-Difluorophenyl)-3-hydroxy-2′-methyl-[2,4′-bipyridine]-4-carbimidoyl nitrile]: 79%; `Cc1cc(-c2nccc(/C(C#N)=N/c3ccc(F)cc3)c2O)ccn1` [Compound 11, N-(4-Fluorophenyl)-3-hydroxy-2′-methyl-[2,4′-bipyridine]-4-carbimidoyl nitrile]: 82%.
With `N#C/C(=N\c1ccc(F)c(Cl)c1)c1ccnc(Nc2ccccc2)c1O` [Compound 12, N-(3-Chloro-4-fluorophenyl)-3-hydroxy-2-(phenylamino)isonicotinimidoyl nitrile], the “percentage of decrease … at two hours” value was 15%.
As for `N#C/C(=N\c1ccc(F)c(Cl)c1)c1ccnc(-c2ccccc2)c1O` [Compound 13, N-(3-Chloro-4-fluorophenyl)-3-hydroxy-2-phenylisonicotinimidoyl nitrile], the “percentage of decrease … at two hours” value came out at 46%.
Consider `COc1cc(/C(C#N)=N/c2ccc(F)c(Cl)c2)c(O)cn1` [Compound 14, N-(3-Chloro-4-fluorophenyl)-5-hydroxy-2-methoxyisonicotinimidoyl nitrile], for which the “percentage of decrease … at two hours” value is 18%.
The value for `COc1cc(-c2nccc(/C(C#N)=N/c3ccc(F)c(Cl)c3)c2O)ccn1` [Compound 15, N-(3-Chloro-4-fluorophenyl)-3-hydroxy-2′-methoxy-[2,4′-bipyridine]-4-carbimidoyl nitrile] was 47%.
Next, `Cc1cc(-c2nccc(/C(C#N)=N/c3ccc(F)c(Cl)c3)c2O)cc(C)n1` [Compound 16]: 36%; `N#C/C(=N\c1ccc(F)c(Cl)c1)c1ccnc(-c2ccc3c(c2)OCO3)c1O` [Compound 17, 2-(Benzo[d][1,3]dioxol-5-yl)-N-(3-chloro-4-fluorophenyl)-3-hydroxyisonicotinimidoyl nitrile]: 10%.
Regarding `Cc1nccc(/C(C#N)=N/c2ccc(F)c(Cl)c2)c1O` [Compound 18, N-(3-Chloro-4-fluorophenyl)-3-hydroxy-2-methylisonicotinimidoyl nitrile], the “percentage of decrease … at two hours” value is reported as 53%.
Next, `N#C/C(=N\c1ccc(F)c(Cl)c1)c1ccnc(Br)c1O` [Compound 19, 2-Bromo-N-(3-chloro-4-fluorophenyl)-3-hydroxyIsonicotinimidoyl nitrile]: 38%.
Take `N#C/C(=N\c1ccccc1Cl)c1ccnc(-c2ccncc2)c1O` [Compound 20]: the “percentage of decrease … at two hours” value amounted to 46%.
Next, `N#C/C(=N\c1ccc(F)c(Cl)c1)c1ccnc(-c2cc(F)nc(F)c2)c1O` [Compound 21, N-(3-Chloro-4-fluorophenyl)-2′,6′-difluoro-3-hydroxy-[2,4′-bipyridine]-4-carbimidoyl nitrile]: 21%.
The value for `N#C/C(=N\c1cccc(Cl)c1)c1ccnc(-c2ccncc2)c1O` [Compound 22, N-(3-Chlorophenyl)-3-hydroxy-[2,4′-bipyridine]-4-carbimidoyl nitrile] was 87%; that for `Cc1cc(-c2nccc(/C(C#N)=N/c3cccc(Cl)c3)c2O)ccn1` [Compound 23, N-(3-Chlorophenyl)-3-hydroxy-2′-methyl-[2,4′-bipyridine]-4-carbimidoyl nitrile] was 79%; that for `Cc1cc(-c2nccc(/C(C#N)=N/c3ccccc3)c2O)ccn1` [Compound 24, 3-Hydroxy-2′-methyl-N-phenyl-[2,4′-bipyridine]-4-carbimidoyl nitrile] was 81%.
Next, `Cc1cc(-c2nccc(/C(C#N)=N/c3ccccc3Cl)c2O)ccn1` [Compound 25, N-(2-Chlorophenyl)-3-hydroxy-2′-methyl-[2,4′-bipyridine]-4-carbimidoyl nitrile]: 37%.
With `Cc1cc(-c2nc(C)cc(/C(C#N)=N/c3ccc(F)c(Cl)c3)c2O)ccn1` [Compound 26, N-(3-Chloro-4-fluorophenyl)-3-hydroxy-2′,6-dimethyl-[2,4′-bipyridine]-4-carbimidoyl nitrile], the “percentage of decrease … at two hours” value came out at 11%.
As for `Cc1cc(-c2nccc(/C(C#N)=N/c3ccc(F)cc3F)c2O)ccn1` [Compound 27, N-(2,4-Difluorophenyl)-3-hydroxy-2′-methyl-[2,4′-bipyridine]-4-carbimidoyl nitrile], the “percentage of decrease … at two hours” value is given as 64%.
The value for `N#C/C(=N\c1cccc(C(F)(F)F)c1)c1ccnc(-c2ccncc2)c1O` [Compound 28, 3-Hydroxy-N-(3-(trifluoromethyl)phenyl)-[2,4′-bipyridine]-4-carbimidoyl nitrile] was 70%.

The values are drawn from patent US20170273961A1, “NOVEL IMINONITRILE DERIVATIVES” (CURADEV PHARMA, PVT. LTD., priority 2014, published 2017).
